Laboratory results: patent US20040120938A1, “Ingestible compositions comprising antibacterial agents” (The University of Bath, priority 1998, published 2004)
Where two headings read alike, the source gives them in different places.

Tests used:
[1] = tested on: Lactobacillus casei 6375; assay: Bacterial growth rate by optical density, 96 well plate (Tests 8(f), 8(g)); assay type: cell-based
Procedure: (§1) Bacteria were seeded into nutrient broth (NB) and grown over night at 37° C. The culture was then counted and normalised to give a final cell concentration of 1.8×10^7 cells well^−1 into the wells of a 96 well plate in fresh nutrient broth. The optical density of each well was monitored every 15 minutes as a measure of the growth rate of each bacterial species. Growth curves were generated for each species and the maximal rate of growth (logarithmic phase) was measured. Cells were treated to a range of experimental conditions in which the growth rate of cells was related to a control of untreated cells. The results were expressed as a percentage of the growth rate of the control cells.
(§2) (i) At a fixed concentration of hypoxanthine (100 μM) a range of purified XO protein concentrations were added at time 0 minutes. The optical density was followed and the growth rate calculated.
(§3) (ii) The growth rate was also measured in relation to the concentration of hypoxanthine, using 30 μg of XO with cells seeded as described above.
(§4) (iv) The effect of XO hypoxanthine addition was measured on the growth rate of a range of bacterial species with 30 […] XO at varying hypoxanthine concentrations using cells seeded as described above.

[2] = tested on: Staphylococcus aureus 6751; assay: as above; assay type: cell-based
Procedure: as §1, §2, §3, §4

[3] = tested on: Bacillus sp; details: read-out: Half maximal concentration H2O2, bolus at beginning of logarithmic growth
Procedure: as §1, §4

[4] = tested on: Micrococcus sp; details: read-out: Half maximal concentration H2O2, bolus at beginning of logarithmic growth
Procedure: as §1, §4

[5] = tested on: Staphylococcus aureus; assay: Incubation of Staphylococcus aureus with SIN-1, growth; assay type: cell-based; details: in dependence on the amount added
Procedure: Cells cultured as described above were diluted to suitable working concentrations (10^4-10^5 Cells Ml^−1) in sterile phosphate buffered saline (PBS). […] Aliquots were taken from the cell cultures and plated on to nutrient agar and incubated in a warm room at 37° C. overnight. Viable cells formed colonies on the agar and were counted. The number of colonies formed was related to an untreated control and a graph of the results is shown in FIG. 1, which illustrates the effect of ONOO^− on cell viability.

[6] = target: T1, bovine xanthine oxidase (XOR) (Bos taurus, UniProt P80457); assay: NO release by XOR with known XOR inhibitors (Test 4); assay type: biochemical; details: inhibitor 100 μM in the XOR/nitrite/NADH assay of Test 1
T1 construct: purchased Biozyme, Blaenavon, UK batch 104AX
T1 sequence (P80457 whole entry): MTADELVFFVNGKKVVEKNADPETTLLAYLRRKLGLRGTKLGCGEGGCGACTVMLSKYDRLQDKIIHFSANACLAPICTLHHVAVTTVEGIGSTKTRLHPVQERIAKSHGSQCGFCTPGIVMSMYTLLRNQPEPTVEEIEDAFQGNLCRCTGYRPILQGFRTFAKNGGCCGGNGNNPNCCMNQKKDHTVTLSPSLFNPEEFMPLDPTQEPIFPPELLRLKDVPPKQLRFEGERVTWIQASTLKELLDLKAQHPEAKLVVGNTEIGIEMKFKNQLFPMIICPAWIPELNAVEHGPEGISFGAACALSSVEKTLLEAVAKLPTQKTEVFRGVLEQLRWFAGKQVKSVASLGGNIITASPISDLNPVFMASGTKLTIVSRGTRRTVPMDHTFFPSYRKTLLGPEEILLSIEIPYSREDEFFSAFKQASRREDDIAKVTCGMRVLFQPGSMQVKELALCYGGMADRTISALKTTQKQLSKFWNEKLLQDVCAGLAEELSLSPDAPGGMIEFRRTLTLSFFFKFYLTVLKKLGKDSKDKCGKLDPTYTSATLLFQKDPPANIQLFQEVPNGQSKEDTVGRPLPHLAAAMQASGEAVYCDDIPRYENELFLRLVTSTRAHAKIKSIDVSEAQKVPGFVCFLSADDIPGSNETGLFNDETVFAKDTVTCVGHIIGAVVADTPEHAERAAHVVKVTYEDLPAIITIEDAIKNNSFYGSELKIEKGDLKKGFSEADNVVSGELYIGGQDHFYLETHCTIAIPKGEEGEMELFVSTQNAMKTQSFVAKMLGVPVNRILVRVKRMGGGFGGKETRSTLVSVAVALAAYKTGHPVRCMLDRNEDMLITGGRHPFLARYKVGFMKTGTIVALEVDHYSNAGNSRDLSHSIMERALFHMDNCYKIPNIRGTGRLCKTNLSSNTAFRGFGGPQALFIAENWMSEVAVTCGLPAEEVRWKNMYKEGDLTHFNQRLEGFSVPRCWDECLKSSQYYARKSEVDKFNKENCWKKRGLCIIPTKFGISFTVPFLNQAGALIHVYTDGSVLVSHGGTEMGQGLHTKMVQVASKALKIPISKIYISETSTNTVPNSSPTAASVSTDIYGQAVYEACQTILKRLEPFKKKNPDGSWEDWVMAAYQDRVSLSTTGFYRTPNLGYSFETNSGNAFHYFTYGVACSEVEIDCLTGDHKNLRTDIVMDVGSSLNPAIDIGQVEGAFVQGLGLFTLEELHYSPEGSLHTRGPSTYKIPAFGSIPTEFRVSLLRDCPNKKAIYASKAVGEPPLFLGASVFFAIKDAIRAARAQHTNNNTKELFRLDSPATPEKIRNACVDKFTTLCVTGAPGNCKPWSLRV
Procedure: Bovine xanthine oxidase was diluted with PBS as indicated in Table 1 below to give 300 μl of enzyme mixture. The enzyme mixture (300 μl) was mixed with 700 μl of a substrate mixture to give an assay volume of 1 ml. The substrate mixture comprised nitrite which was added to the assay to give a concentration of 1 mM and NADH which was added to give a concentration of 0.3 mM. Where, for example in Tests 2 to 4 below, additional components are added to the sample, the amount of PBS is adjusted accordingly to give an assay volume of 1 ml. The sample was placed in the reaction vessel of the NO determination apparatus under a nitrogen atmosphere and the generation of NO was measured and the results calculated as a steady state rate in mV/s. […] Two different inhibitors were used. Oxypurinol was used at a concentration of 100 μM. Oxypurinol is a molybdenum site-specific inhibitor. Diphenyliodonium (DPI) was used at a concentration of 100 μM. DPI is a FAD site inhibitor.

[7] = tested on: nitric oxide (NO) release; assay: NO release from full fat milk with nitrite and NADH under hypoxia (Test 5); assay type: biochemical; details: inhibitor 100 μM; for inhibition of the increased NO release of milk gone off at 4° C.: milk kept at 4° C. more than 3 days
Procedure: (§5) The production of nitric oxide in the following tests and examples was analysed using an ozone chemiluminescence assay in a continuous flow apparatus (Sievers NOA 280) that allows the real time analysis of NO production. The apparatus was modified to allow a constant stream of nitrogen to flow into the reaction chamber. Chemiluminescence data were collected by a data acquisition system; the mean NO produced in parts per billion (ppb) was calculated from readings taken every second and shown as ppb or mV.
(§6) Progress curves, of molar production of NO against time, were calculated by taking into account the gas flow and the mean level of NO. Molar production of NO was expressed as ppb/sec or mV/sec. Reactions were carried out in a final volume of 1 ml at 37° C. in an atmosphere of <1% oxygen (Stathkelvin combination needle oxygen electrode, Diamond General Corp.).
(§7) To the “substrates” bijou, 200 μl of 100 mM stock sodium nitrite was added together with 200 μl of the 5 mM reduced NADH to give an assay concentration of 20 mM nitrite and 1 mM reduced NADH.
(§8) To the “milk” bijou were added 600 μl of milk sample to give an assay volume of 1 ml.
(f) At t=5 minutes, the contents of the “milk” bijou were injected into the reaction cell using a 1 ml syringe and the release of NO was monitored for a further 20 minutes. The set up was such that the reaction cell was a sealed system having an inlet gas flow of 200 ml/min and a sample extraction flow to the NOA-280 of 200 ml/min. The steady-state generation of NO (which corresponded to a plateau region on the trace of the NO production) was noted to give the mV/s release of NO from the 1 ml assay volume.
Full fat milk was assayed with 20 mM nitrite and 1 mM NADH as described above in Test 1. […] 600 μl of milk was used in each test giving a protein content in each assay of 20.4 mg.
The milk was taken and divided into two halves. One was kept at 4° C., and the other at −20° C. Samples of the milk were taken over several days and the generation of NO was investigated using the method described above.

[8] = tested on: nitric oxide (NO) release; assay: NO release from formula feeds with nitrite and NADH (Test 7); assay type: biochemical; details: inhibitor 100 μM
Procedure: as §5, §6, §7, §8
(f) At t=5 minutes, the contents of the “milk” bijou were injected into the reaction cell using a 1 ml syringe and the release of NO was monitored for a further 20 minutes. […]

[9] = tested on: bacteria in pasteurised semi skimmed milk; details: 100 μM in pasteurised semi skimmed milk, 4-8° C., 8 days
Procedure: Pasteurised semi skimmed milk 1 ml was aliquoted into 7 sterile plastic bijou bottles comprising control and treated hypoxanthine (Hxan) groups. […] The samples were stored refrigerated at 4-8° C. until required on a specific day when a control and treated sample was incubated at 37° C. for 30 minutes. A 100 μl aliquot was taken from each sample and spread onto nutrient agar which was then incubated over night at 37° C. The total number of colonies formed regardless of type was counted and expressed for each treatment as the colony forming units per ml of the original test sample (CFU ml^−1).

[10] = tested on: superoxide; assay: Measurable NO in the XO/hypoxanthine system with superoxide dismutase; assay type: biochemical; details: added to the Xo/hypoxanthine system; oxygen 0 to 2%

## OO [H2O2, hydrogen peroxide]
[1]; read-out: Half maximal concentration H2O2, Lactobacillus casei, bolus at beginning of logarithmic growth
  IC50: 305 µM
[2]; S. aureus, 50% growth reduction not observed at the concentration ranges used
  growth inhibition: very limited
[3]
  IC50: 77.6 µM
[4]
  IC50: 19.5 µM

## N=c1c[n+](N2CCOCC2)[n-]o1 [SIN-1, 3-morpholinosydnonimine]
[5]
  growth of Staphylococcus aureus: reduced growth

## O=c1[nH]c(=O)c2c[nH]nc2[nH]1 [Oxypurinol]
[6]
  NO release: 0.00 mV/s
[7]
  NO generation of fresh full fat milk with inhibitor: no detectable NO generation
  inhibition of the increased NO release of milk gone off at 4° C.: not inhibited
[8]
  inhibition of NO release of 7 days old Cow and Gate formula: not inhibited
[1]; 30 μg XO and 200 μM hypoxanthine, range of concentrations
  effect on XO/hypoxanthine growth inhibition: reduce the effect of XO/hypoxanthine growth inhibition in a dose dependent manner
[1]; highest concentration, alone
  growth rate of Lactobacillus, added alone: no effect

## O=c1[nH]cnc2nc[nH]c12 [Hypoxanthine, hypoxanthine]
[9]
  total number of colonies formed (CFU ml^−1): reduce the total number of colonies formed
[1]; Lacticaseibacillus casei, 6375, Lactobacillus, at 30 μg XO, read-out: half maximal hypoxanthine dose
  IC50: 104 µM
[2]; Staphylococcus, in the presence of 30 μg XO
  growth rate: reduced the growth rate

## superoxide dismutase
[10]
  amount of measurable NO: increase the amount of measurable NO

## c1ccc([I+]c2ccccc2)cc1 [DPI, Diphenyliodonium]
[6]
  NO release: 0.00 mV/s
[7]
  NO generation of fresh full fat milk with inhibitor: no detectable NO generation
  inhibition of the increased NO release of milk gone off at 4° C.: not inhibited
[8]
  inhibition of NO release of 7 days old Cow and Gate formula: not inhibited
